This is an account of results in patent US9394263B2, “Substituted hetero-azepinones” (priority 2012, dated 2016).

The structures appear in SMILES notation. Where a name gives a salt, the structure may show the parent alone. Bounds are passed on as bounds.

Assay [1] has as its target BIR2 domain of XIAP (Homo sapiens (Human), UniProt P98170, C202A/C213G). Description: TR-FRET assay for BIR2: inhibition of binding of XIAP BIR2 domain to Peptide A (SMAC-derived peptide).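 Also: percent inhibition measured across a concentration series of each compound, from which the IC50 was derived.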 Particulars: read-out: BIR2 IC50. On the technique in general: TR-FRET usually uses a lanthanide donor and a delayed reading to cut background.
Procedure: TR-FRET Assay for BIR2 and BIR3
The peptides were labeled with the fluorescent tags FITC or TAMRA and Kd values were determined by fluorescence polarization assay.
The peptide sequence was derivatized with biotin to provide [sequence]-(8-biotin)-OH 1:2 TFA as the substrate for the TR-FRET assay.
The XIAP protein sequence was obtained from the SWISS-PROT protein sequence database and the BIR2 and BIR3 domains were derived from that.
Percentage of inhibition at each concentration was determined to generate an IC50 value for each test compound.
The target of assay [2] is BIR3 domain of XIAP (Homo sapiens (Human), UniProt P98170). As to the kind of experiment: TR-FRET assay for BIR3: inhibition of binding of XIAP BIR3 domain to Peptide A (SMAC-derived peptide). Conditions: read-out: BIR3 IC50.
Sequence of BIR3 domain of XIAP (P98170 241-356 with tags or gaps limits assumed): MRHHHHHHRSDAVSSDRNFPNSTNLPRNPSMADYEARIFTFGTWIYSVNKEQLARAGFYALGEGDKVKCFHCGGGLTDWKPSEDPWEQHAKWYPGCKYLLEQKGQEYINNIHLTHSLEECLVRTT

Sequence of BIR2 domain of XIAP (P98170 other isoform, or with tags, fused parts or gaps, stated change not applied): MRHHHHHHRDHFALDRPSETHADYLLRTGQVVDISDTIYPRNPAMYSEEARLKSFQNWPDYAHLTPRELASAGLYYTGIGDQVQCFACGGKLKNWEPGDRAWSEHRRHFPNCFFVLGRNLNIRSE

The term IC50 denotes the midpoint of a concentration-inhibition curve. For `CCN[C@@H](C)C(=O)N[C@@H]1C(=O)N(Cc2nn(-c3ccccc3C#N)c3ccccc23)c2ccccc2O[C@H]1C` [Example 74, (2S)-N-((2S,3S)-5-((1-(2-Cyanophenyl)-1H-indazol-3-yl)methyl)-2-methyl-4-oxo-2,3,4,5-tetrahydrobenzo[b][1,4]oxazepin-3-yl)-2-(ethylamino)propanamide trifluoroacetate], the results for the IC50 in assay [1] and in assay [2] were 0.146 µM and over 54.8 µM, respectively.

As to `CCN[C@@H](C)C(=O)N[C@@H]1C(=O)N(Cc2c(C#N)n(-c3ccccc3C#N)c3ccccc23)c2ccccc2O[C@H]1C` [Example 77, (S)-N-((2S,3S)-5-((2-Cyano-1-(2-cyanophenyl)-1H-indol-3-yl)methyl)-2-methyl-4-oxo-2,3,4,5-tetrahydrobenzo[b][1,4]oxazepin-3-yl)-2-(ethylamino)propanamide], the IC50 in assay [1] is 0.107 µM; in assay [2], over 54.8 µM.
